In patent US20100221763A1, “Specific Acceptors for Transferases to Saccharides and Method for Obtaining and Using Same” (Health Research, Inc, priority 2005, published 2010):
“And” between values parts separate entries of the source, which are not always exact repeats. Equal values may be shown once.

Experiments:
[1] = target: T1, Rat recombinant α2,3(N)ST (Rattus norvegicus, UniProt Q02734); assay: Sialyltransferase assay with cloned α2,3(N)ST; format: biochemical; settings: for Sialyltransferase activity (%) Cloned α2,3(N)ST: Table I, acceptor 7.5 mM, 100% = 29520 CPM (Galβ1,4GlcNAcβ-O—Al); for Cloned Sialyltransferase Activities α2,3(N) ST %: Table III, compound 7.5 mM, 100% = 38140 CPM (Galβ1,4GlcNAcβ1,6(3-O-MeGalβ1,3)GalNAcα-O-Bn)
T1 construct: purchased Calbiochem
T1 sequence (Q02734 29-374 limits assumed): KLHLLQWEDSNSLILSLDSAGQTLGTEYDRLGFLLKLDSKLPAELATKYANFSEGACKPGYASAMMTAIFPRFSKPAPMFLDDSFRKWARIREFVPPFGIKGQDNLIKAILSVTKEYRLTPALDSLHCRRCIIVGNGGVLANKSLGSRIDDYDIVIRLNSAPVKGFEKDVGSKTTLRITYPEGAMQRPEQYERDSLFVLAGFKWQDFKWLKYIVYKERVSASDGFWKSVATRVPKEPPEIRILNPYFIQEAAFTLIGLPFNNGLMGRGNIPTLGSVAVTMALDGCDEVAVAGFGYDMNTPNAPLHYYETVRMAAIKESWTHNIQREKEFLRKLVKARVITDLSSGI
Method: (§1) Rat recombinant α2,3(O)ST, α2,3(N)ST and α2,6(N)ST were purchased from Calbiochem and stored at either −20° C. or −70° C. as recommended by the supplier. […] 10 μl aliquots of the diluted enzymes were used in the assays run in duplicate.
(§2) The incubation mixtures run in duplicate contained 0.1M NaCacodylate buffer pH6.0, the acceptor (typically at 7.5 mM, or as indicated in some experiments), CMP-[9 ^3H] NeuAc (typically 0.2 μci; 20 μci/nmol or as indicated in some experiments) and the enzyme in a total volume of 20 μl. The control incubation mixtures contained everything except the acceptor. Incubation was carried out for 2 h at 37° C. The enzymatic transfer of [9-^3H] NeuAc to a typical acceptor was linear for 2 h and less than 30% CMP-[9-^3H] NeuAc was utilized. Chromatography, using either Dowex-1-Formate, Sep-Pak C18 or Biogel P2, was applied to separate radioactive product from un-reacted [9-^3H] NeuAc as described below.
(§3) The radioactive products from neutral allyl and methyl glycosides as well as non-glycosides were measured by fractionation on Dowex-1-Formate (Bio-Rad: AG-1X8; 200-400 mesh; format form) as follows: The incubation mixture was diluted with 1.0 ml water and passed through AG-1-formate column (1.0 ml bed volume in a Pasteur pipet which had been washed with 5 ml of 2M Formic acid followed by 10 ml water). The column was washed twice with 1.0 ml water after the entry of the sample and then eluted with 3.0 ml of 0.1M NaCl. The radioactivity present in water and 0.1M NaCl eluates were measured separately using 3a70 scintillation cocktail (Research Products International, Mount Prospect, Ill.) and a Beckman LS6500 scintillation counter. The CPM values were corrected by subtracting the blank CPM. Any radioactivity present in the water eluate (as noticed in the case of some methylglycosides) was added to the corresponding CPM value of 0.1M NaCl eluate. The radioactive products from sulfated and/or sialylated methylglycosides were also measured by the above procedure, only the elution of the AG-1-Formate column was continued further with 3.0 ml of 0.2M NaCl for achieving a complete elution of the radioactive product, a correction being made as before by subtracting the corresponding blank values.
(§4) The radioactive products from benzylglycosides and monosialylated benzylglycosides were measured by hydrophobic chromatography on Sep-Pak C18 cartridge (Waters, Milford, Mass.) and eluting the product with 3.0 ml methanol (30). The radioactivity was determined by liquid scintillation as above.
(§5) For such work, a Biogel P2 column (Fine Mesh; 1.0×116.0 cm) was used with 0.1M pyridine acetate pH5.4 as the eluent at room temperature. The effluent fractions were monitored for radioactivity and the first peak containing radioactivity was collected, lyophilized to dryness, dissolved in 200 μl of water and stored frozen at −20° C. for thin layer chromatography (TLC) and other experimentation.

[2] = target: T2, Rat recombinant α2,6(N)ST (Rattus norvegicus, UniProt P13721); assay: Sialyltransferase assay with cloned α2,6(N)ST; format: biochemical; settings: for Sialyltransferase activity (%) Cloned α2,6(N)ST: Table I, acceptor 7.5 mM, 100% = 43500 CPM (Galβ1,4GlcNAcβ-O—Al); for Cloned Sialyltransferase Activities α2,6(N)ST %: Table III, compound 7.5 mM, 100% = 30440 CPM (Galβ1,4GlcNAcβ1,6(3-O-MeGalβ1,3)GalNAcα-O-Bn)
T2 construct: purchased Calbiochem
T2 sequence (P13721 1-403): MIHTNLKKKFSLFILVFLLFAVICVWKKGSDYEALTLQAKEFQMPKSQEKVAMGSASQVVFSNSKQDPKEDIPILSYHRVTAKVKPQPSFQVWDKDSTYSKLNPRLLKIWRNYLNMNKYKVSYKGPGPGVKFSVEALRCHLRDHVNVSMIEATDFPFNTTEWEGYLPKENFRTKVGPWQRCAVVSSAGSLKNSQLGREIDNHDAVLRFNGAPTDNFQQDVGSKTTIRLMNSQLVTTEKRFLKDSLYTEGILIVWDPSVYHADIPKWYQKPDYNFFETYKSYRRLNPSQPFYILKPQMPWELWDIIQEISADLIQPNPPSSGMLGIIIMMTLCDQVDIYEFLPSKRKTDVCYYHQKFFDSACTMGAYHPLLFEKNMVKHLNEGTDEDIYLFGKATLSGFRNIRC
Method: as §1, §2, §3, §4, §5

[3] = target: T3, Rat recombinant α2,3(O)ST (Rattus norvegicus, UniProt Q11205); assay: Sialyltransferase assay with cloned α2,3(O)ST; format: biochemical; settings: for Sialyltransferase activity (%) Cloned α2,3(O)ST: Table I, acceptor 7.5 mM, 100% = 40560 CPM (3-O-MeGalβ1,4GlcNAcβ1,6(Galβ1,3)GalNAcα-O-Bn); for Cloned Sialyltransferase Activities α2,3(O) ST %: Table III, compound 7.5 mM, 100% = 39200 CPM (3-O-MeGalβ1,4GlcNAcβ1,6(Galβ1,3)GalNAcα-O-Bn)
T3 construct: purchased Calbiochem
T3 sequence (Q11205 1-350): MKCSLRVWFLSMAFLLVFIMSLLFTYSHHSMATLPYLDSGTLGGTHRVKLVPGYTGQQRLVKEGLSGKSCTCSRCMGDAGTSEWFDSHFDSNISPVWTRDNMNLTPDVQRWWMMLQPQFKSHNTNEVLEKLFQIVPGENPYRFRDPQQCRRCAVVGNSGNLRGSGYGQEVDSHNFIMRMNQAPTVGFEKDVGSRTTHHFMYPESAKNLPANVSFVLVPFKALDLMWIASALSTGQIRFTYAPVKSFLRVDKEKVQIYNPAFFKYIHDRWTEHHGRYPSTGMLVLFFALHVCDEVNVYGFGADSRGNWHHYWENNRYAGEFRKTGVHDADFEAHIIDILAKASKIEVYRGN
Method: as §1, §2, §3, §4, §5

[4] = test system: LNCaP α2,3(O)ST; assay: Sialyltransferase assay with LNCaP cell extract; format: biochemical, human; settings: for LNCaPα2,3(O)ST %: Table III, compound 7.5 mM, 100% = 30100 CPM (3-O-MeGalβ1,4GlcNAcβ1,6(Galβ1,3)GalNAcα-O-Bn)
Method: The prostate carcinoma cell line, LNCaP, was grown in RPMI 1640 supplemented with 10% fetal bovine serum and antibiotics (penicillin, streptomycin and amphotericin B) under conditions recommended by American Type Culture Collection (Manassas, Va.). The cells were homogenized with 0.1M Tris-Maleate pH6.3 containing 2% Triton X-100 using a Dounce all glass hand-operated homogenizer. The homogenate was centrifuged at 16,000 g for 1 h at 4° C. Protein concentration in supernatant was measured using the BCA assay (Pierce Biotech, Inc., Rockford, Ill.), with BSA as the standard. The supernatant was adjusted to 5 mg protein/ml by adding the necessary amount of extraction buffer and then stored frozen at −20° C. until use. 10 μl aliquot of this extract was used in assays run in duplicate.
as §2, §3, §4, §5

| Compound | Sialyltransferase activity (%) Cloned α2,3(N)ST [1] | Sialyltransferase activity (%) Cloned α2,6(N)ST [2] [%] | Sialyltransferase activity (%) Cloned α2,3(O)ST [3] | Cloned Sialyltransferase Activities α2,3(N) ST % [1] | Cloned Sialyltransferase Activities α2,6(N)ST % [2] | Cloned Sialyltransferase Activities α2,3(O) ST % [3] | also measured |
| --- | --- | --- | --- | --- | --- | --- | --- |
| CO[C@H]1[C@H](O[C@H]2[C@H](O)[C@@H](CO)O[C@@H](OCc3ccccc3)[C@@H]2NC(C)=O)O[C@H](CO)[C@H](O)[C@@H]1O [2-O-MeGalβ1,3GlcNAcβ-O-Bn] |  | 0 |  |  |  |  |  |
| CC(=O)N[C@H]1[C@H](OC[C@H]2O[C@H](OCc3ccccc3)[C@H](NC(C)=O)[C@@H](O[C@@H]3O[C@H](CO)[C@H](O)[C@H](O)[C@H]3O)[C@H]2O)O[C@H](CO)[C@@H](O[C@@H]2O[C@H](CO)[C@H](F)[C@H](O)[C@H]2O)[C@@H]1O [4-FGalβ1,4GlcNAcβ1,6(Galβ1,3)GalNAcα-O-Bn] |  |  |  | 7.9% | 2.7% | 102.1% |  |
| CC(=O)N[C@H]1[C@H](OC[C@H]2O[C@H](OCc3ccccc3)[C@H](NC(C)=O)[C@@H](O[C@@H]3O[C@H](CO)[C@H](O)[C@H](F)[C@H]3O)[C@H]2O)O[C@H](CO)[C@@H](O[C@@H]2O[C@H](CO)[C@H](O)[C@H](O)[C@H]2O)[C@@H]1O [Galβ1,4GlcNAcβ1,6(3-FGalβ1,3)GalNAcα-O-Bn] |  |  |  | 96.9^25% | 77.7^19% | 77.2% | LNCaPα2,3(O)ST % [4]: 1.7% |
| CO[C@H]1O[C@H](CO[C@@H]2O[C@H](COS(=O)(=O)O)[C@@H](O[C@@H]3O[C@H](CO)[C@H](O)[C@H](O)[C@H]3O)[C@H](O[C@@H]3O[C@@H](C)[C@@H](O)[C@@H](O)[C@@H]3O)[C@H]2NC(C)=O)[C@H](O)[C@H](O[C@@H]2O[C@H](CO)[C@H](O)[C@H](O[C@]3(C(=O)O)C[C@H](O)[C@@H](NC(C)=O)[C@H]([C@H](O)[C@H](O)CO)O3)[C@H]2O)[C@H]1NC(C)=O [Galβ1,4(6-O-Sulfo)(Fucα1,3)GlcNAcβ1,6(NeuAcα2,3Galβ1,3)GalNAcα-O-Me] | 1.7% | 0 |  |  |  |  |  |
| CO[C@H]1[C@@H](O)[C@@H](CO)O[C@@H](O[C@H]2[C@H](O)[C@@H](NC(C)=O)C(O)O[C@@H]2CO)[C@@H]1O (stereo partly shown) [3-O-MeGalβ1,4GlcNAc] | 1.4% | 8.7 | 3.6% |  |  |  |  |
| CC(=O)N[C@H]1[C@H](OC[C@H]2O[C@H](OCc3ccccc3)[C@H](NC(C)=O)[C@@H](O[C@@H]3O[C@H](CO)[C@H](O)[C@H](O)[C@H]3O)[C@H]2O)O[C@H](CO)[C@@H](O[C@@H]2O[C@H](CO)[C@H](O)[C@H](O)[C@H]2O)[C@@H]1O [Galβ1,4GlcNAcβ1,6(Galβ1,3)GalNAcα-O-Bn] | 100.7% | 93.3 | 94.4^4% |  |  |  | α2,6(N)ST activity at varying acceptor concentration (FIG. 3A) ([2]; lowest concentration tested, 0.15 mM): considerable activity |
| CO[C@H]1O[C@H](CO[C@@H]2O[C@H](COS(=O)(=O)O)[C@@H](O[C@@H]3O[C@H](CO)[C@H](O)[C@H](O)[C@H]3O)[C@H](O)[C@H]2NC(C)=O)[C@H](O)[C@H](O[C@@H]2O[C@H](CO)[C@H](O)[C@H](O[C@]3(C(=O)O)C[C@H](O)[C@@H](NC(C)=O)[C@H]([C@H](O)[C@H](O)CO)O3)[C@H]2O)[C@H]1NC(C)=O [Galβ1,4(6-O-Sulfo)GlcNAcβ1,6(NeuAcα2,3Galβ1,3)GalNAcα-O-Me] | 50.8% and 50.8^22% | 0.9 |  |  |  |  | Sialyltransferase activity (%) Cloned α2,3(N)ST ([1]; listed as Galβ1,4(6-O-Sulfo)GlcNAcβ1,6(NeuAcα2,3Galβ1,3)GalNAcα-): 50.8% |

The next lines start with results.

| Sialyltransferase activity (%) Cloned α2,3(N)ST [1] | Sialyltransferase activity (%) Cloned α2,6(N)ST [2] [%] | Sialyltransferase activity (%) Cloned α2,3(O)ST [3] | Cloned Sialyltransferase Activities α2,3(N) ST % [1] | Cloned Sialyltransferase Activities α2,6(N)ST % [2] | Cloned Sialyltransferase Activities α2,3(O) ST % [3] | Compound | also measured |
| --- | --- | --- | --- | --- | --- | --- | --- |
| 123.1% | 3.0 | 42.1% |  |  |  | C=CCOC1OC(CO)C(O)C(OC2OC(CO)C(O)C(O)C2O)C1NC(C)=O (stereo not shown) [Galβ1,3GlcNAcβ-O—Al] | Sialyltransferase activity (%) LNCaP α2,3(O)ST ([4]; Table I, acceptor 7.5 mM, 100% = 30930 CPM (3-O-MeGalβ1,4GlcNAcβ1,6(Galβ1,3)GalNAcα-O-Bn)): 3.7% |
|  |  |  | 7.2% | 11.3% | 102.9^12% | CC(=O)N[C@H]1[C@H](OC[C@H]2O[C@H](OCc3ccccc3)[C@H](NC(C)=O)[C@@H](O[C@@H]3O[C@H](CO)[C@H](O)[C@H](O)[C@H]3O)[C@H]2O)O[C@H](CO)[C@@H](O[C@@H]2O[C@H](CO)[C@H](O)[C@H](F)[C@H]2O)[C@@H]1O [3-FGalβ1,4GlcNAcβ1,6(Galβ1,3)GalNAcα-O-Bn] | LNCaPα2,3(O)ST % [4]: 91.5% |
| 19.0% | 7.1 | 133.4% |  |  |  | CO[C@H]1O[C@H](CO[C@@H]2O[C@H](CO)[C@@H](O[C@@H]3O[C@H](CO)[C@H](O)[C@H](O)[C@H]3O)[C@H](O[C@@H]3O[C@@H](C)[C@@H](O)[C@@H](O)[C@@H]3O)[C@H]2NC(C)=O)[C@H](O)[C@H](O[C@@H]2O[C@H](CO)[C@H](O)[C@H](O)[C@H]2O)[C@H]1NC(C)=O [Galβ1,4(Fucα1,3)GlcNAcβ1,6(Galβ1,3)GalNAcα-O-Me] |  |
